Source: article PMC7867265, “Phosphofructokinases A and B from Mycobacterium tuberculosis Display Different Catalytic Properties and Allosteric Regulation” (International Journal of Molecular Sciences, 2021)

Legend:
[1] = target: T1, Pfk A (Mycobacterium tuberculosis, UniProt P9WID7)
T1 construct: gene pfkA

[2] = target: T1, Pfk A; remark: listed apart in the source
[3] = target: T1, Pfk A; remark: listed apart in the source
[4] = target: T1, Pfk A; remark: listed apart in the source
[5] = target: T2, Pfk B (Mycobacterium tuberculosis, UniProt P9WID3)
T2 construct: gene pfkB
T2 sequence (P9WID3 whole entry): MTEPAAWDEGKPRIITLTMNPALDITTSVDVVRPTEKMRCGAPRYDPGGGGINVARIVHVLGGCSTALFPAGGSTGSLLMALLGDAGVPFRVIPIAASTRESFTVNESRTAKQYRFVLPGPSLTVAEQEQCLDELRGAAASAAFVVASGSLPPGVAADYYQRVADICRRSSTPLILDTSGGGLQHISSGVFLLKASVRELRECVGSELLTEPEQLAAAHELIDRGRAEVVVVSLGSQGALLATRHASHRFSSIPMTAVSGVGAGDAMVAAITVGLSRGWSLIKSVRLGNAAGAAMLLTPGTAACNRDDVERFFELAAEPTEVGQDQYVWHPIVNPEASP

T1 sequence (P9WID7 whole entry): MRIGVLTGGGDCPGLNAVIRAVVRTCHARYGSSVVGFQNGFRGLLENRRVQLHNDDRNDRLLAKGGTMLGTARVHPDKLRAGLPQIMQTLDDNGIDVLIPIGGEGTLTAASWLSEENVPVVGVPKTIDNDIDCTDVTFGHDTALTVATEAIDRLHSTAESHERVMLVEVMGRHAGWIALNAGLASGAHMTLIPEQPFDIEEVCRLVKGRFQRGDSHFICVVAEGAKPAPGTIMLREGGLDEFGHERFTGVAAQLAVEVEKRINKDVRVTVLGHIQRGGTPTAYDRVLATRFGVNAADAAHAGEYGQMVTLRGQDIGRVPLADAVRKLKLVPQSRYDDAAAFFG

## Nc1ncnc2c1ncn2[C@@H]1O[C@H](COP(=O)(O)OP(=O)(O)OP(=O)(O)O)[C@@H](O)[C@H]1O [ATP]
[1]
  K1/2 (Km): 1.5 ± 0.3 mM

## Nc1nc2c(ncn2[C@@H]2O[C@H](COP(=O)(O)OP(=O)(O)O)[C@@H](O)[C@H]2O)c(=O)[nH]1 [GDP]
[2]
  inhibition, coupled assay I: Pfk A was found to be efficiently inhibited also by GDP within the millimolar concentration range

## C=C(OP(=O)(O)O)C(=O)O [PEP]
[2]
  inhibition, coupled assay I: efficient Pfk A inhibition can be achieved by a low micromolar concentration of this metabolite

## O=P(O)(O)OC[C@H]1OC(O)(COP(=O)(O)O)[C@@H](O)[C@@H]1O (some centres unmarked) [F16bP]
[3]
  feedback inhibition, modified coupled assay II: Pfk A was efficiently inhibited by F16bP within the low micromolar concentration range

## O=P(O)(O)OC[C@H]1O[C@@](CO)(OP(=O)(O)O)[C@@H](O)[C@@H]1O [F26bP]
[4]
  % activation at 100 μM: 10%
[5]
  % activation at 100 μM: 20%

## O=C(O)CC(O)(CC(=O)O)C(=O)O [citrate]
[2]
  inhibition, coupled assay I: Citrate also inhibited Pfk A, however, in millimolar concentrations

## O=P(O)(O)OC[C@H]1OC(O)(CO)[C@@H](O)[C@@H]1O (some centres unmarked) [F6P]
[1]
  K1/2 (Km): 13.2 ± 2.0 mM
